Several values for one entry are separate records, joined by “and”; a condition that tells them apart may be missing. Identical values can stand only once.
System: 521955-158-R6-J3-PDC complex spheroid growth, % test/control
Assay: Anticancer human tumor 521955-158-R6-J3-PDC patient-derived pancreatic carcinoma cell line growth inhibition [Asc]
Conditions: for viability, T/C: stronger effect = lower value
Method in brief: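 Tumor cells were grown as multicellular spheroids with stromal HUVEC and mesenchymal stem cells and treated singly or in combination. Concentrations fell in half-log steps from the clinical Cmax, or from 10 microM where none was known.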
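Note: spheroids exposed to compounds for 7 days.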
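Throughout, for viability, T/C: 100% = DMSO vehicle control wells.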

SMILES: Cc1nc(N2CCC3(CC2)COC(C)C3N)c(CO)nc1Sc1ccnc(N)c1Cl (stereo not drawn)
- viability, T/C (compound 0.00949 µM): 89.6% and 113% and 112%
- viability, T/C (compound 0.03 µM): 90.4% and 106% and 101%
- viability, T/C (compound 0.0949 µM): 83.9% and 93.1% and 97%
- viability, T/C (compound 0.3 µM): 84.7% and 97.1% and 94.5%
- viability, T/C (compound 0.949 µM): 72.8% and 94.4% and 71.6%
- viability, T/C (compound 3 µM): 57.9% and 89.5% and 90.1%
- IC50 (curve of compound): > 3000 nM

SMILES: CNC(C)C(=O)NC1CN(S(=O)(=O)c2cccc(S(=O)(=O)N3CCC4CCC(C(=O)NC(c5ccccc5)c5ccccc5)N4C(=O)C(NC(=O)C(C)NC)C3)c2)CCC2CCC(C(=O)NC(c3ccccc3)c3ccccc3)N2C1=O (stereo not drawn)
- IC50 (compound alone, run of 11/15/2022): > 1000 nM
- IC50 (curve of compound): > 1000 nM

SMILES: CCN1CCN(Cc2ccc(Nc3ncc(F)c(-c4cc(F)c5nc(C)n(C(C)C)c5c4)n3)nc2)CC1 + CCN1C(C(=O)NC23CCC(C(=O)O)(CC2)CC3)C(c2cccc(Cl)c2F)C2(C(=O)Nc3cc(Cl)ccc32)C12CCCCC2
- IC50 (curve of first compound, second compound 0.00949 µM): > 1000 nM
- IC50 (curve of first compound, second compound 0.03 µM): > 1000 nM
- IC50 (curve of first compound, second compound 0.0949 µM): > 1000 nM
- IC50 (curve of first compound, second compound 0.3 µM): > 1000 nM
- IC50 (curve of first compound, second compound 0.949 µM): > 1000 nM
- IC50 (curve of first compound, second compound 3 µM): > 1000 nM
- viability, T/C (second compound 0.00949 µM, first compound 0.00316 µM): 102%
- viability, T/C (second compound 0.00949 µM, first compound 0.01 µM): 90.3%
- viability, T/C (second compound 0.00949 µM, first compound 0.0316 µM): 79.1%
- viability, T/C (second compound 0.00949 µM, first compound 0.1 µM): 101%
- viability, T/C (second compound 0.00949 µM, first compound 0.316 µM): 89.1%
- viability, T/C (second compound 0.00949 µM, first compound 1 µM): 88.6%
- viability, T/C (second compound 0.03 µM, first compound 0.00316 µM): 101%
- viability, T/C (second compound 0.03 µM, first compound 0.01 µM): 104%
- viability, T/C (second compound 0.03 µM, first compound 0.0316 µM): 88.5%
- viability, T/C (second compound 0.03 µM, first compound 0.1 µM): 92.2%
- viability, T/C (second compound 0.03 µM, first compound 0.316 µM): 92.9%
- viability, T/C (second compound 0.03 µM, first compound 1 µM): 102%
- viability, T/C (second compound 0.0949 µM, first compound 0.00316 µM): 112%
- viability, T/C (second compound 0.0949 µM, first compound 0.01 µM): 101%
- viability, T/C (second compound 0.0949 µM, first compound 0.0316 µM): 97.4%
- viability, T/C (second compound 0.0949 µM, first compound 0.1 µM): 95.5%
- viability, T/C (second compound 0.0949 µM, first compound 0.316 µM): 91.3%
- viability, T/C (second compound 0.0949 µM, first compound 1 µM): 106%
- viability, T/C (second compound 0.3 µM, first compound 0.00316 µM): 106%
- viability, T/C (second compound 0.3 µM, first compound 0.01 µM): 112%
- viability, T/C (second compound 0.3 µM, first compound 0.0316 µM): 102%
- viability, T/C (second compound 0.3 µM, first compound 0.1 µM): 87.8%
- viability, T/C (second compound 0.3 µM, first compound 0.316 µM): 93.1%
- viability, T/C (second compound 0.3 µM, first compound 1 µM): 90.2%
- viability, T/C (second compound 0.949 µM, first compound 0.00316 µM): 108%
- viability, T/C (second compound 0.949 µM, first compound 0.01 µM): 98.5%
- viability, T/C (second compound 0.949 µM, first compound 0.0316 µM): 109%
- viability, T/C (second compound 0.949 µM, first compound 0.1 µM): 93.2%
- viability, T/C (second compound 0.949 µM, first compound 0.316 µM): 93.3%
- viability, T/C (second compound 0.949 µM, first compound 1 µM): 102%
- viability, T/C (second compound 3 µM, first compound 0.00316 µM): 106%
- viability, T/C (second compound 3 µM, first compound 0.01 µM): 101%
- viability, T/C (second compound 3 µM, first compound 0.0316 µM): 91.5%
- viability, T/C (second compound 3 µM, first compound 0.1 µM): 84.8%
- viability, T/C (second compound 3 µM, first compound 0.316 µM): 103%
- viability, T/C (second compound 3 µM, first compound 1 µM): 93.2%

SMILES: O=C(c1cc(Cc2n[nH]c(=O)c3ccccc23)ccc1F)N1CCN(C(=O)C2CC2)CC1
- viability, T/C (compound 0.0316 µM): 103% and 91.4% and 91.6%
- viability, T/C (compound 0.1 µM): 92.6% and 93.9% and 101%
- viability, T/C (compound 0.316 µM): 100% and 101% and 87.3%
- viability, T/C (compound 1 µM): 108% and 101% and 91.8%
- viability, T/C (compound 3.16 µM): 98.8% and 94.8% and 124%
- viability, T/C (compound 10 µM): 98.6% and 78.8% and 86.5%
- IC50 (curve of compound): > 10000 nM
